Measurements taken from ChEMBL document CHEMBL3885861, “Open TG-GATES”.

Species: Rattus norvegicus
Assay: Open TG-GATES - Regimen: Single
Assay type: toxicity, organism-based, Sprague-Dawley
Set-up: regimen Single, gender Male, age 6 weeks
Conditions: in vivo, ip, 0 mg/kg, route intraperitoneal injection, dose level Control; for APTT / Bas / Eos / Fbg / Hb / Ht / Lym / MCH / MCHC / MCV / Mono / Neu / PT / Plat / RBC / Ret / WBC: tissue Blood; for KIDNEY_L / KIDNEY_R / KIDNEY_TOTAL: tissue Kidney; for LIVER: tissue Liver; for A/G / ALP / ALT / AST / BUN / CRE / Ca / Cl / DBIL / GLC / IP / K / LDH / Na / PL / RALB / TBIL / TC / TG / TP / gamma-GTP: tissue Plasma

`CC(C)=CC(=O)C=C(C)C` [PHORONE] showed a TERMINAL_BW (3 h) of 224.3 g, an APTT (3 h) of 17.2 s and a Bas (3 h) of 0%. For the same compound, the Eos (3 h) was 1%, the Fbg (3 h) was 227.4 mg/dL and the Hb (3 h) was 13.5 g/dL. For the same compound, the Ht (3 h) was 40.2%, the Lym (3 h) was 71% and the MCH (3 h) was 22.1 pg. For the same compound, the MCHC (3 h) was 33.5%, the MCV (3 h) was 65.9 fL and the Mono (3 h) was 8.2%. For the same compound, the Neu (3 h) was 19.8%, the PT (3 h) was 12.2 s and the Plat (3 h) was 114.4 x10_4/uL. It also gave an RBC (3 h) of 609.2 x10_4/ul, a Ret (3 h) of 9.2% and a WBC (3 h) of 97 x10_2/uL. The KIDNEY_L (3 h) was 1 g, the KIDNEY_R (3 h) was 1 g and the KIDNEY_TOTAL (3 h) was 2 g. For the same compound, the LIVER (3 h) was 10.7 g, the A/G (3 h) was 1.9 and the ALP (3 h) was 863.8 IU/L. For the same compound, the ALT (3 h) was 35.2 IU/L, the AST (3 h) was 73.4 IU/L and the BUN (3 h) was 13.6 mg/dL. The CRE (3 h) was 0.5 mg/dL, the Ca (3 h) was 11.1 mg/dL and the Cl (3 h) was 106.2 meq/L. It also gave a DBIL (3 h) of 0.02 mg/dL, a GLC (3 h) of 195 mg/dL and an IP (3 h) of 9.9 mg/dL. The K (3 h) was 5.1 meq/L, the LDH (3 h) was 86 IU/L and the Na (3 h) was 139.6 meq/L. It also gave a PL (3 h) of 142.8 mg/dL, an RALB (3 h) of 3.6 g/dL and a TBIL (3 h) of 0.4 mg/dL. For the same compound, the TC (3 h) was 75.8 mg/dL, the TG (3 h) was 99 mg/dL and the TP (3 h) was 5.6 g/dL. It also gave a gamma-GTP (3 h) of 1.4 IU/L, a TERMINAL_BW (6 h) of 219.5 g and an APTT (6 h) of 17.4 s. The Bas (6 h) was 0%, the Eos (6 h) was 0.6% and the Fbg (6 h) was 223.8 mg/dL. For the same compound, the Hb (6 h) was 13.2 g/dL, the Ht (6 h) was 39.7% and the Lym (6 h) was 74.6%. It also gave an MCH (6 h) of 21.2 pg, an MCHC (6 h) of 33.2% and an MCV (6 h) of 63.9 fL. It also gave a Mono (6 h) of 4.4%, a Neu (6 h) of 20.4% and a PT (6 h) of 12.3 s. It also gave a Plat (6 h) of 118.6 x10_4/uL, an RBC (6 h) of 620.2 x10_4/ul and a Ret (6 h) of 9.1%. For the same compound, the WBC (6 h) was 102.1 x10_2/uL, the KIDNEY_L (6 h) was 0.9 g and the KIDNEY_R (6 h) was 0.9 g. It also gave a KIDNEY_TOTAL (6 h) of 1.9 g, an LIVER (6 h) of 9.7 g and an A/G (6 h) of 2. For the same compound, the ALP (6 h) was 700.4 IU/L, the ALT (6 h) was 34.8 IU/L and the AST (6 h) was 72.8 IU/L. The BUN (6 h) was 12.6 mg/dL, the CRE (6 h) was 0.5 mg/dL and the Ca (6 h) was 10.6 mg/dL. For the same compound, the Cl (6 h) was 105.2 meq/L, the DBIL (6 h) was 0.024 mg/dL and the GLC (6 h) was 210.4 mg/dL. For the same compound, the IP (6 h) was 10.2 mg/dL, the K (6 h) was 4.7 meq/L and the LDH (6 h) was 65 IU/L. It also gave a Na (6 h) of 139 meq/L, a PL (6 h) of 137 mg/dL and an RALB (6 h) of 3.5 g/dL. It also gave a TBIL (6 h) of 0.4 mg/dL, a TC (6 h) of 77.8 mg/dL and a TG (6 h) of 50 mg/dL. The TP (6 h) was 5.2 g/dL, the gamma-GTP (6 h) was 1.2 IU/L and the TERMINAL_BW (9 h) was 217.4 g. The APTT (9 h) was 17.2 s, the Bas (9 h) was 0% and the Eos (9 h) was 0.8%. For the same compound, the Fbg (9 h) was 246.8 mg/dL, the Hb (9 h) was 13.1 g/dL and the Ht (9 h) was 39.7%. For the same compound, the Lym (9 h) was 70%, the MCH (9 h) was 21.7 pg and the MCHC (9 h) was 33.1%. The MCV (9 h) was 65.5 fL, the Mono (9 h) was 4.6% and the Neu (9 h) was 25.2%. It also gave a PT (9 h) of 11.9 s, a Plat (9 h) of 112.4 x10_4/uL and an RBC (9 h) of 606.8 x10_4/ul. It also gave a Ret (9 h) of 9.2%, a WBC (9 h) of 108.4 x10_2/uL and a KIDNEY_L (9 h) of 0.9 g. For the same compound, the KIDNEY_R (9 h) was 1 g, the KIDNEY_TOTAL (9 h) was 1.9 g and the LIVER (9 h) was 9 g. The A/G (9 h) was 2.1, the ALP (9 h) was 720.6 IU/L and the ALT (9 h) was 29.8 IU/L. For the same compound, the AST (9 h) was 60.6 IU/L, the BUN (9 h) was 11.4 mg/dL and the CRE (9 h) was 0.5 mg/dL. For the same compound, the Ca (9 h) was 10.7 mg/dL, the Cl (9 h) was 105.8 meq/L and the DBIL (9 h) was 0.066 mg/dL. It also gave a GLC (9 h) of 200.6 mg/dL, an IP (9 h) of 10.6 mg/dL and a K (9 h) of 4.5 meq/L. For the same compound, the LDH (9 h) was 74.8 IU/L, the Na (9 h) was 138.8 meq/L and the PL (9 h) was 138.6 mg/dL. The RALB (9 h) was 3.8 g/dL, the TBIL (9 h) was 0.4 mg/dL and the TC (9 h) was 79.8 mg/dL. It also gave a TG (9 h) of 42.8 mg/dL, a TP (9 h) of 5.6 g/dL and a gamma-GTP (9 h) of 1.4 IU/L. It also gave a TERMINAL_BW (24 h) of 237.9 g, an APTT (24 h) of 17.4 s and a Bas (24 h) of 0%. For the same compound, the Eos (24 h) was 1%, the Fbg (24 h) was 276.4 mg/dL and the Hb (24 h) was 12.9 g/dL. For the same compound, the Ht (24 h) was 38.6%, the Lym (24 h) was 73.6% and the MCH (24 h) was 21.5 pg. For the same compound, the MCHC (24 h) was 33.3%, the MCV (24 h) was 64.8 fL and the Mono (24 h) was 4.6%. For the same compound, the Neu (24 h) was 20.6%, the PT (24 h) was 11.7 s and the Plat (24 h) was 118.3 x10_4/uL. The RBC (24 h) was 596.2 x10_4/ul, the Ret (24 h) was 8.4% and the WBC (24 h) was 101.3 x10_2/uL. The KIDNEY_L (24 h) was 1 g, the KIDNEY_R (24 h) was 1.1 g and the KIDNEY_TOTAL (24 h) was 2.1 g. For the same compound, the LIVER (24 h) was 11.7 g, the A/G (24 h) was 1.9 and the ALP (24 h) was 856.2 IU/L. For the same compound, the ALT (24 h) was 28.8 IU/L, the AST (24 h) was 55.6 IU/L and the BUN (24 h) was 16.4 mg/dL. For the same compound, the CRE (24 h) was 0.5 mg/dL, the Ca (24 h) was 10.9 mg/dL and the Cl (24 h) was 103.2 meq/L. For the same compound, the DBIL (24 h) was 0.026 mg/dL, the GLC (24 h) was 195.4 mg/dL and the IP (24 h) was 8.7 mg/dL. It also gave a K (24 h) of 4.9 meq/L, an LDH (24 h) of 66.2 IU/L and a Na (24 h) of 138.4 meq/L. For the same compound, the PL (24 h) was 140.6 mg/dL, the RALB (24 h) was 3.6 g/dL and the TBIL (24 h) was 0.4 mg/dL. For the same compound, the TC (24 h) was 78.4 mg/dL, the TG (24 h) was 80.8 mg/dL and the TP (24 h) was 5.6 g/dL. It also gave a gamma-GTP (24 h) of 1.6 IU/L.
